Laboratory results taken from BindingDB's records for doi:10.1002/cbdv.201000242 (East China University of Science and Technology, 2011).
pIC50: −log10 of the molar value.

Key:
Assay in all cases: Inhibitory Assay
Conditions in all cases: pH 6.5
[1] = biological target: Receptor-type tyrosine-protein phosphatase F (Homo sapiens, UniProt P10586)
Description: (§1) Enzymatic activity of enzyme was evaluated using pNPP assay. Briefly, a reaction mixture (100 µL) containing 50 mM MOPS (pH 6.5), 2 mM pNPP and recombinant enzymes was monitored at 405 nm for 2 min at 30 °C.

[2] = biological target: T1, Tyrosine-protein phosphatase non-receptor type 1 (Homo sapiens, UniProt P18031)
T1 sequence (P18031 whole entry): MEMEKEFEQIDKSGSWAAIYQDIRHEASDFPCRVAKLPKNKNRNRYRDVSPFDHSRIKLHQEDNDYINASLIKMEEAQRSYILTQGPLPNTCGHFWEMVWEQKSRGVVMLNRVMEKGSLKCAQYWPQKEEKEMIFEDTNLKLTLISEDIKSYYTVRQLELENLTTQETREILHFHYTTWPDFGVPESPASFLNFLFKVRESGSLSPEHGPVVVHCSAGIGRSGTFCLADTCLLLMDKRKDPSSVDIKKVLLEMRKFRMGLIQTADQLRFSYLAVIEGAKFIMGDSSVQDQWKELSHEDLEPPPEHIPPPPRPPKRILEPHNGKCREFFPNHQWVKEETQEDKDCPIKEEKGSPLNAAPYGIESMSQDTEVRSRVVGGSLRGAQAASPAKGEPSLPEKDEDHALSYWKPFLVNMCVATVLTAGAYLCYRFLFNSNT
Description: as §1

[3] = biological target: T2, Tyrosine-protein phosphatase non-receptor type 11 (Homo sapiens, UniProt Q06124)
T2 sequence (Q06124 whole entry): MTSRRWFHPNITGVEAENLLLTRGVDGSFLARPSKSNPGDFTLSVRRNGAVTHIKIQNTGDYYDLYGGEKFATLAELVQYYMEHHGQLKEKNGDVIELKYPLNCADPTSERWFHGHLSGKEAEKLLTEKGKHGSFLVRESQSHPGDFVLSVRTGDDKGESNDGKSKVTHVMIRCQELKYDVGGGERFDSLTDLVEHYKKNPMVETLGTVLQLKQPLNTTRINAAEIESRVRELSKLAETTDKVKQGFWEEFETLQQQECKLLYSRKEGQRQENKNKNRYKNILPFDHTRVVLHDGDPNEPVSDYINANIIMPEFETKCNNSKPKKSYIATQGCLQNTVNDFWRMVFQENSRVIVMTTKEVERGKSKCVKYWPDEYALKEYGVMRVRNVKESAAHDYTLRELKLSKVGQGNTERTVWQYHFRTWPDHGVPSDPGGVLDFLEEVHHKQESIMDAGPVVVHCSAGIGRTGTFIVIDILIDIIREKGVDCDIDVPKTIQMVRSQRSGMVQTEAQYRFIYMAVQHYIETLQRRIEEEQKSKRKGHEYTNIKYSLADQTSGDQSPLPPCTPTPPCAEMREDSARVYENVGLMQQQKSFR
Description: as §1

[4] = biological target: T3, Tyrosine-protein phosphatase non-receptor type 2 (Homo sapiens, UniProt P17706)
T3 sequence (P17706 whole entry): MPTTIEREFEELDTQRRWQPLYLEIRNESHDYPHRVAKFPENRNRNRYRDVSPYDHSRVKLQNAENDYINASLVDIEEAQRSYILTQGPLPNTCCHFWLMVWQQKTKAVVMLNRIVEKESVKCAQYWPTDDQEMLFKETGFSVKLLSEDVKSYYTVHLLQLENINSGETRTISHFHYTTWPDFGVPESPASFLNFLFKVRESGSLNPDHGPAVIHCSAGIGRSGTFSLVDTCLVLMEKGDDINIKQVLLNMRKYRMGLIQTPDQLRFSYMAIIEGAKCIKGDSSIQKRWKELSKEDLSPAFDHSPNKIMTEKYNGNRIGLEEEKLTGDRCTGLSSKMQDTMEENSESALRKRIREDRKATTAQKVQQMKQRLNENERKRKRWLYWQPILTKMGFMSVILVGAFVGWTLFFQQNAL
Description: as §1

[5] = biological target: Tyrosine-protein phosphatase non-receptor type 6 (Homo sapiens, UniProt P29350)
Description: as §1

Tyrosine-protein phosphatase non-receptor type 6, sequence (P29350 whole entry): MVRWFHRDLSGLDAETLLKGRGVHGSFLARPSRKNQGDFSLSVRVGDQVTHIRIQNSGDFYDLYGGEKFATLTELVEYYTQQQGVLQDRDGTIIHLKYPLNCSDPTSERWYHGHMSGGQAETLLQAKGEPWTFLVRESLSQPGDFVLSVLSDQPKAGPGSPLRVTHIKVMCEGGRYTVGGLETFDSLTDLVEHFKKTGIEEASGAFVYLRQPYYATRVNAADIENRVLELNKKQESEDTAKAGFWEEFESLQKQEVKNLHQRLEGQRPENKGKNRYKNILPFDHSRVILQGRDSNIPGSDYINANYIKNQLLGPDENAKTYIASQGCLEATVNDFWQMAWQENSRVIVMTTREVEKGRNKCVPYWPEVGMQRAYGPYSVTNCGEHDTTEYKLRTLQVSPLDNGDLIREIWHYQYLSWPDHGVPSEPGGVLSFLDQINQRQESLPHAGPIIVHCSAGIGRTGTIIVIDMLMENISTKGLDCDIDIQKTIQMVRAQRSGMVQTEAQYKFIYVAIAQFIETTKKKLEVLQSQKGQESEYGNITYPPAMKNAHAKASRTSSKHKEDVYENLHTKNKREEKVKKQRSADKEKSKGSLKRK
Receptor-type tyrosine-protein phosphatase F, sequence (P10586 whole entry): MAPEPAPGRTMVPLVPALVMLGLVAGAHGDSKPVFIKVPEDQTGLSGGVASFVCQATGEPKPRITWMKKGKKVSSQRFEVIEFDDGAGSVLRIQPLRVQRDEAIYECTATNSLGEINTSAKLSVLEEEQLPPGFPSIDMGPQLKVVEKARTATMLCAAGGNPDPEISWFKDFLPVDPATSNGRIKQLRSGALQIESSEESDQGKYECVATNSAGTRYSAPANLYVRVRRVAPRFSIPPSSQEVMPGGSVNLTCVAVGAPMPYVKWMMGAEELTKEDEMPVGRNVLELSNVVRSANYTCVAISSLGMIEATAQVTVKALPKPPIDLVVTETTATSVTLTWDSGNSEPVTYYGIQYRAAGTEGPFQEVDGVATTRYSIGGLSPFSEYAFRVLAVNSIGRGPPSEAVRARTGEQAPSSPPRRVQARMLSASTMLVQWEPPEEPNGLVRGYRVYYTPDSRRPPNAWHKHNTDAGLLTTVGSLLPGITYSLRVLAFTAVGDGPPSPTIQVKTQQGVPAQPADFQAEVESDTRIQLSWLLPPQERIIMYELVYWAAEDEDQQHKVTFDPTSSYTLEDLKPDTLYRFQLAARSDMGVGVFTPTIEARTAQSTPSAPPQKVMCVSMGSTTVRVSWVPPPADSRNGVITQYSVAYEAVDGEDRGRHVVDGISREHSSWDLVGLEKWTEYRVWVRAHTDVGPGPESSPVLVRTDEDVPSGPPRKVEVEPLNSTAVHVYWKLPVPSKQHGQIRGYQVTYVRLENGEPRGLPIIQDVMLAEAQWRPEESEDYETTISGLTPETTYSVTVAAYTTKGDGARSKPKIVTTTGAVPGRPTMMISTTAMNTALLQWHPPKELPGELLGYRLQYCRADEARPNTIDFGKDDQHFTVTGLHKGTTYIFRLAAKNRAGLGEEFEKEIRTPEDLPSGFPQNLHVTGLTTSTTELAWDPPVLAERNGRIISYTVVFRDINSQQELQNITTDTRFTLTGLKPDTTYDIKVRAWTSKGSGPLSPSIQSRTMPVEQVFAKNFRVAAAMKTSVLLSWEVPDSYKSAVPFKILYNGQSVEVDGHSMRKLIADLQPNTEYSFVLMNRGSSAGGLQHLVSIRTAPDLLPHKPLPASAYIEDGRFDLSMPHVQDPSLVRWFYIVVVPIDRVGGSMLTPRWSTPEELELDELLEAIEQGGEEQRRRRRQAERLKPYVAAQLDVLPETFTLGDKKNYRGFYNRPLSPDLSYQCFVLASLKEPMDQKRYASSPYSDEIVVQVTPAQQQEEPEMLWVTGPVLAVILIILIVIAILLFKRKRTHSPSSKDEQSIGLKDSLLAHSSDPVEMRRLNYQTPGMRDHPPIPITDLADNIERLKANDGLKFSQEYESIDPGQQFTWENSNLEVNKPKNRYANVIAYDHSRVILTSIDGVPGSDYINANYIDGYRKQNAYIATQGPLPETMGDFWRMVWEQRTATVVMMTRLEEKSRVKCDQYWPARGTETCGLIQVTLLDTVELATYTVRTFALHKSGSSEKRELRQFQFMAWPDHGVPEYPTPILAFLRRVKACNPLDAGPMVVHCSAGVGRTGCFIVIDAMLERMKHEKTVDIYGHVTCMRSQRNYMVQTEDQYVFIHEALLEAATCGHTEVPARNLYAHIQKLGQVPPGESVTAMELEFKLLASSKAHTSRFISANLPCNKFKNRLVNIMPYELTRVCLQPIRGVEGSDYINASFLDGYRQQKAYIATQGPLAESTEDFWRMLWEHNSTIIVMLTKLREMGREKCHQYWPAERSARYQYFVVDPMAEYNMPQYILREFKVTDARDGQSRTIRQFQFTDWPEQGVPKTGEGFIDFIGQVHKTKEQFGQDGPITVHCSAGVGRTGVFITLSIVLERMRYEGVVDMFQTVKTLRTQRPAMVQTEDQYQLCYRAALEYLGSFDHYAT

CC(=O)OC[C@H]1O[C@H](n2cc(Cn3cnc4c(Cl)nc(N)nc43)nn2)[C@H](OC(C)=O)[C@@H](OC(C)=O)[C@@H]1OC(C)=O [2-Amino-6-chloro-9-{[1-(2,3,4,6-tetra-O-acetyl-b-d-glucopyranosyl)-1H-1,2,3-triazol-4-yl]methyl}-9H-purine (7)] was tested, and the pIC50 [1] was < 4.10, the pIC50 [2] was < 4.10 and the pIC50 [3] was < 4.10. The pIC50 [4] was < 4.10 and the pIC50 [5] was < 4.10.

For C#CCn1cnc2c(Cl)nc(N)nc21 [6-Chloro-9-(prop-2-yn-1-yl)-9H-purin-2-amine (2)], the pIC50 [1] was < 4.10, the pIC50 [2] was 3.63 and the pIC50 [3] was < 4.10. The pIC50 [4] was < 4.10 and the pIC50 [5] was < 4.10.

For CC(=O)OC[C@H]1O[C@H](n2cc(CNc3nc(Cl)c4ncn(Cc5cn([C@H]6O[C@H](COC(C)=O)[C@@H](OC(C)=O)[C@H](OC(C)=O)[C@H]6OC(C)=O)nn5)c4n3)nn2)[C@H](OC(C)=O)[C@@H](OC(C)=O)[C@@H]1OC(C)=O [6-Chloro-9-{[1-(2,3,4,6-tetra-O-acetyl-b-d-glucopyranosyl)-1H-1,2,3-triazol-4-yl]methyl}-2-({[1-(2,3,4,6-tetra-O-acetyl-b-d-glucopyranosyl)-1H-1,2,3-triazol-4-yl]methyl}amino)-9H-purine (8)], the pIC50 [1] was < 4.10, the pIC50 [2] was < 4.10 and the pIC50 [3] was < 4.10. For the same compound, the pIC50 [4] was < 4.10 and the pIC50 [5] was < 4.10.

CO[C@H]1O[C@H](Cn2cc(CNc3nc(Cl)c4ncn(Cc5cn(C[C@H]6O[C@H](OC)[C@H](OCc7ccccc7)[C@@H](OCc7ccccc7)[C@@H]6OCc6ccccc6)nn5)c4n3)nn2)[C@@H](OCc2ccccc2)[C@H](OCc2ccccc2)[C@H]1OCc1ccccc1 [6-Chloro-N,9-bis[(1-{[(2R,3R,4S,5R,6S)-3,4,5-tris(benzyloxy)-tetrahydro-6-methoxy-2H-pyran-2-yl]methyl}-1H-1,2,3-triazol-4-yl)methyl]-9H-purin-2-amine (13)] was tested, and the pIC50 [1] was < 4.10, the pIC50 [2] was 5.66 and the pIC50 [3] was < 4.10. The pIC50 [4] was 4.96 and the pIC50 [5] was < 4.10.

In the case of CO[C@H]1O[C@H](Cn2cc(CNc3nc(Cl)c4ncn(Cc5cn(C[C@H]6O[C@H](OC)[C@H](OCc7ccccc7)[C@@H](OCc7ccccc7)[C@H]6OCc6ccccc6)nn5)c4n3)nn2)[C@H](OCc2ccccc2)[C@H](OCc2ccccc2)[C@H]1OCc1ccccc1 [6-Chloro-N,9-bis[(1-{[(2R,3S,4S,5R,6S)-3,4,5-tris(benzyloxy)-tetrahydro-6-methoxy-2H-pyran-2-yl]methyl}-1H-1,2,3-triazol-4-yl)methyl]-9H-purin-2-amine (14)], the pIC50 [1] was < 4.10, the pIC50 [2] was 5.49 and the pIC50 [3] was < 4.10. For the same compound, the pIC50 [4] was 4.74 and the pIC50 [5] was < 4.10.

C#CCNc1nc(Cl)c2ncn(CC#C)c2n1 [6-Chloro-N,9-di(prop-2-yn-1-yl)-9H-purin-2-amine (3)] was tested, and the pIC50 [1] was < 4.10, the pIC50 [2] was 4.12 and the pIC50 [3] was < 4.10. The pIC50 [4] was < 4.10 and the pIC50 [5] was < 4.10.

In the case of COc1nc(NCc2cn(C[C@H]3O[C@H](OC)[C@H](OCc4ccccc4)[C@@H](OCc4ccccc4)[C@H]3OCc3ccccc3)nn2)nc2c1ncn2Cc1cn(C[C@H]2O[C@H](OC)[C@H](OCc3ccccc3)[C@@H](OCc3ccccc3)[C@H]2OCc2ccccc2)nn1 [6-Methoxy-N,9-bis[ (1-{[(2R,3S,4S,5R,6S)-3,4,5-tris(benzyloxy)-tetrahydro-6-methoxy-2H-pyran-2-yl]methyl}-1H-1,2,3-triazol-4-yl)methyl]-9H-purin-2-amine (16)], the pIC50 [1] was < 4.10, the pIC50 [2] was 5.82 and the pIC50 [3] was 4.45. The pIC50 [4] was 5.54 and the pIC50 [5] was 4.60.

For COc1nc(NCc2cn(C[C@H]3O[C@H](OC)[C@H](OCc4ccccc4)[C@@H](OCc4ccccc4)[C@@H]3OCc3ccccc3)nn2)nc2c1ncn2Cc1cn(C[C@H]2O[C@H](OC)[C@H](OCc3ccccc3)[C@@H](OCc3ccccc3)[C@@H]2OCc2ccccc2)nn1 [6-Methoxy-N,9-bis[(1-{[(2R,3R,4S,5R,6S)-3,4,5-tris(benzyloxy)-tetrahydro-6-methoxy-2H-pyran-2-yl]methyl}-1H-1,2,3-triazol-4-yl)methyl]-9H-purin-2-amine (15)], the pIC50 [1] was < 4.10, the pIC50 [2] was 5.10 and the pIC50 [3] was < 4.10. The pIC50 [4] was 4.79 and the pIC50 [5] was < 4.10.

With CO[C@H]1O[C@H](Cn2cc(Cn3cnc4c(Cl)nc(N)nc43)nn2)[C@H](OCc2ccccc2)[C@H](OCc2ccccc2)[C@H]1OCc1ccccc1 [Methyl 6-{4-[(2-Amino-6-chloro-9H-purin-9-yl)methyl]-1H-1,2,3-triazol-1-yl}-2,3,4-tri-O-benzyl-6-deoxy-a-d-galactopyranoside (10)] the pIC50 [1] was < 4.10, the pIC50 [2] was 4.95 and the pIC50 [3] was < 4.10. The pIC50 [4] was 4.27 and the pIC50 [5] was < 4.10.

With CO[C@H]1O[C@H](Cn2cc(Cn3cnc4c(Cl)nc(N)nc43)nn2)[C@@H](OCc2ccccc2)[C@H](OCc2ccccc2)[C@H]1OCc1ccccc1 [Methyl 6-{4-[(2-Amino-6-chloro-9H-purin-9-yl)methyl]-1H-1,2,3-triazol-1-yl}-2,3,4-tri-O-benzyl-6-deoxy-a-d-glucopyranoside (9)] the pIC50 [1] was < 4.10, the pIC50 [2] was 5.14 and the pIC50 [3] was < 4.10. For the same compound, the pIC50 [4] was 4.52 and the pIC50 [5] was < 4.10.

With COc1nc(N)nc2c1ncn2Cc1cn(C[C@H]2O[C@H](OC)[C@H](OCc3ccccc3)[C@@H](OCc3ccccc3)[C@H]2OCc2ccccc2)nn1 [Methyl 6-{4-[(2-Amino-6-methoxy-9H-purin-9-yl)methyl]-1H-1,2,3-triazol-1-yl}-2,3,4-tri-O-benzyl-6-deoxy-a-d-galactopyranoside (12)] the pIC50 [1] was < 4.10, the pIC50 [2] was < 4.10 and the pIC50 [3] was < 4.10. For the same compound, the pIC50 [4] was < 4.10 and the pIC50 [5] was < 4.10.

In the case of COc1nc(N)nc2c1ncn2Cc1cn(C[C@H]2O[C@H](OC)[C@H](OCc3ccccc3)[C@@H](OCc3ccccc3)[C@@H]2OCc2ccccc2)nn1 [Methyl 6-{4-[(2-Amino-6-methoxy-9H-purin-9-yl)methyl]-1H-1,2,3-triazol-1-yl}-2,3,4-tri-O-benzyl-6-deoxy-a-d-glucopyranoside (11)], the pIC50 [1] was < 4.10, the pIC50 [2] was < 4.10 and the pIC50 [3] was < 4.10. For the same compound, the pIC50 [4] was < 4.10 and the pIC50 [5] was < 4.10.
